Measurements taken from patent US20190167771A1, “CONTROL ANGIOGENESIS BY REGULATING PHOSPHORYLATION OF SERYL-tRNA SYNTHETASE (SerRS)” (The Scripps Research Institute, priority 2016, published 2019).

What was measured:
SerRS phosphorylation = experiment: Hypoxia-induced phosphorylation of endogenous SerRS in HEK293 cells with ATM/ATR inhibitors (IP/IB); format: cell-based, human; conditions: HEK293 pretreated with inhibitor for one hour, hypoxia 12 hours
Method: In FIG. 7C, HEK293 cells were pretreated with specific ATM inhibitor KU-55933 and ATR inhibitor VE-821 for one hour and then cultured under hypoxia condition for 12 hours. Cell lysates were subjected to IP with anti-SerRS antibody followed by immunoblot (IB) with anti-P-SQ antibody for detecting phosphorylated SerRS (P-SerRS). Phosphorylation of known ATM/ATR substrates (Chk1 and Chk2) was also immunoblotted.
Cells were resuspended with lysis buffer (20 mM Tris-HCl (pH 7.5), 150 mM NaCl, 1 mM of EDTA, 1 mM EGTA, 1% Triton X-100, 2.5 mM sodium pyrophosphate, 1 mM beta-glycerophosphate, 1 mM Na3VO4, and protease inhibitor cocktail) on ice. Supernatants were incubated with indicated antibodies and protein-G-conjugated agarose beads (ThermoFisher Scientific) for at least 2 h. The beads were washed five times with wash buffer (same as the lysis buffer, except that Triton X-100 was reduced from 1% to 0.1%) and then subjected to SDS-PAGE and immunoblotting analysis with indicated antibodies.

VEGFA [1] = experiment: VEGFA mRNA induction by 12-hour hypoxia in HEK293 cells (qRT-PCR); format: cell-based, human; conditions: inhibitor 5 μM pretreatment, hypoxia 12 hours
Method: In FIG. 3B, HEK293 cells were transiently transfected with SerRS^WT or SerRS^S101A/S241A constructs or empty control vector. 24 hours post-transfection, VEGFA mRNA induction by 12-hour-hypoxia treatment was monitored by qRT-PCR (means±SEM from four independent experiments; *P<0.05, **P<0.01, ***P<0.005). In FIG. 3C, HEK293 cells were transiently transfected with indicated constructs. 36 hours post-transfection, VEGFA mRNA induction by 12-hour-hypoxia treatment was monitored by qRT-PCR (means±SEM from four independent experiments; *P<0.0, **P<0.001, ***P<0.0001). The protein levels of SerRS, HIF-1α, and β-actin were examined by western blot (bottom).
Transient transfections were performed using Lipofectamine 2000 (ThermoFisher Scientific).
One gram of the total RNA from each sample was reversely transcribed to cDNA by M-MLV reverse transcriptase (Promega, Madison, Wis., USA). All real-time PCR reactions were performed using the StepOnePlus Real-Time PCR system (ThermoFisher Scientific) with SYBR Select Master Mix ThermoFisher Scientific). […] The PCR reaction program started at 95° C. for 10 min, followed by 45 cycles of 95° C. for 20 seconds and 60° C. for 1 min. Each experiment was carried out in triplicate. The VEGFA gene expression was normalized to that of β-ACTIN. Statistical analyses were performed with the software SigmaPlot (version 10.0). Student's t-test was used to analyze the changes between different groups.

zebrafish embryos = experiment: Intersegmental vessel (ISV) branching in zebrafish embryos; format: in vivo; conditions: SerRS-MO alone, 3 dpf
Method: (§1) In FIG. 2A, wild type SerRS (SerRS^WT), its mutants with double substitutions of serine 101 and 241 with alanine or aspartic acid residues (SerRS^S101A/S241A and SerRS^S101D/S241D), or empty vector were transfected into HEK293 cells. The expression levels of SerRS proteins was measured by immunoblot (bottom) and VEGFA expression was determined by qRT-PCR (means±SEM from three independent experiments; ***P<0.0001). In FIGS. 2B-D, the roles of SerRS^S101A/S241A and SerRS^S101D/S241D in regulating vascular development in vivo in zebrafish were examined by co-injection of SerRS^S101A/S241A and SerRS^S101D/S241D mRNAs into one-cell-stage embryos whose endogenous SerRS was knocked down by injection of antisense morpholino (SerRS-MO) that led to abnormal high expression of Vegfa and hypervascularization (shown by short bold arrows in FIG. 2C). At 3 day post fertilization (dpf), embryos were harvested and Vegfa expression levels were measured by qRT-PCR (means±SEM, n=125-211; *P<0.01, **P<0.001) (B). The development of intersegmental vessel (ISV) at 3 dpf was examined (C) and the statistics of ISV abnormal branching rescued by SerRS^WT or mutant SerRS mRNA injections was analyzed (D; χ^2-test,* P>0.05 vs SerRS^WT, **P>0.1 vs SerRS-MO, ***P<1×10^−28 vs control-MO). In FIG. 2E, the binding affinities of SerRS^WT or SerRS^S101D/S241D with ^32P labeled DNA fragments corresponding to SerRS binding site on human VEGFA promoter were examined by EMSA. In FIG. 2F, the binding of SerRS^WT, SerRS^S101A/S241A, or SerRS^S101D/S241D on VEGFA promoter in HEK293 cells was examined by chromatin immunoprecipitation (ChIP) and qPCR (means±SEM from two independent experiments; ***P<0.0001). In FIG. 2G, the binding of endogenous SerRS on VEGFA promoter during hypoxia course was monitored by ChIP (means±SEM from three independent experiments; *P<0.05, **P<0.005 vs normal).
Transgenic Tg (Fli1a: EGFP) fish were maintained as we described before (Ref). The fish embryos were kept at 28.5° C. before and after microinjection. The antisense morpholino (MOs) targeting SerRS was injected into the yolk of 1-cell stage embryos at the dosage of 4˜5 ng per embryo. The sequence of SerRS-MO is (Ref). The SerRS-MO (5′ AGGAGAATGTGAACAAACCTGACAC 3′ (SEQ ID NO: 34)) and standard control MO (5′ CCTCTTACCTCAGTTACAATTTATA 3′ (SEQ ID NO: 35)) were purchased from Gene Tools, LLC (Philomath, Oreg. USA). After injection, embryos were incubated in E3 embryo medium supplemented with 0.003% 1-phenyl-2-thiourea (PTU) at 28.5° C. to prevent pigment formation. […] The rescue effects of different SerRS mutants on ISV development were analyzed with χ^2 test. […]

Vegfa [2] = experiment: Vegfa mRNA by qRT-PCR in zebrafish embryos with SerRS knockdown and mRNA co-injection; format: in vivo; conditions: morpholino injected into 1-cell stage embryos, 3 dpf
Method: as §1
Total RNA was isolated from cells and zebrafish embryos by TRIzol Reagent (ThermoFisher Scientific). […] of the total RNA from each sample was reversely transcribed to cDNA by M-MLV reverse transcriptase (Promega, Madison, Wis., USA). All real-time PCR reactions were performed using the StepOnePlus Real-Time PCR system (ThermoFisher Scientific) with SYBR Select Master Mix ThermoFisher Scientific). […]

ATM/ATR kinases = experiment: In vitro phosphorylation of recombinant SerRS by DNA-activated HEK293 nuclear extract (p-SQ immunoblot, 32P-labelling); format: biochemical, human; conditions: recombinant his6-tagged protein, p-SQ antibody and 32P-labelling
Method: FIGS. 1A-G show SerRS is important for hypoxia induced VEGFA expression and is phosphorylated by ATM and ATR kinases under hypoxia at serine 101 and serine 241 residues. In FIG. 1A, HEK293 cells were transfected with shRNAs targeting SerRS (sh-SerRS) or GlyRS (sh-GlyRS), or nonspecific control shRNA (sh-Control). 48 hours post-transfection, cells were cultured under hypoxia or normoxia conditions for 12 hours. Immunoblot of cell lysates with anti-SerRS, anti-GlyRS and anti-β-actin antibodies (left). VEGFA expression levels were measured by qRT-PCR (right) and relative induction of VEGFA transcription under hypoxia were plotted (right, inset) (means±SEM. from four independent experiments; *P<0.01, **P<0.0001). […] The conserved ATM/ATR substrate motif residues are underlined. In FIG. 1C, recombinant his6-tagged human SerRS or GlyRS were incubated with γ-^32P-ATP and HEK293 cell nuclear extracts which are treated with or without double-stranded DNA oligoes mimicking DNA damage stimuli to activate ATM/ATR/DNA-PK kinases. Recombinant proteins were then purified by Ni-NTA beads and subjected to SDS-PAGE and autoradiography. In FIG. 1D, recombinant his6-tagged two human aminoacyl tRNA synthetases (AARS): TyrRS and GlyRS, wild type SerRS, or SerRS mutants with single or double substitutions of serine 101 and serine 241 with alanine (S101A, S241A, and S101A/S241A) were treated as described in FIG. 1C and phosphorylated recombinant proteins were immunoblotted with antibodies as indicated after purification by Ni-NTA beads. In FIG. 1E, HEK293 cells were cultured under hypoxia for 3, 6, and 12 hours. Phosphorylated SerRS was immunoblotted with specific anti-p-SQ antibody after SerRS proteins were immunoprecipitated (IP). Cell lysates were immunoblotted with indicated antibodies for known ATM and ATR substrates (Chk1 and P53). In FIG. 1F, Flag-tagged wild type and mutant SerRS constructs were transfected into HEK293 cells. 24 hours post-transfection, cells were treated with hypoxia stress for 12 hours and ectopically expressed SerRS was then purified by immunoprecipitation (IP) using anti-Flag antibody and immunoblot (IB) with anti-P-SQ antibody and anti-Flag antibody. In FIG. 1G, HEK293 cells were transfected with siRNA against ATM (si-ATM) or ATR (si-ATR) and treated with hypoxia stress for 12 hours. Phosphorylated SerRS were immunoblotted as described in FIG. 1E. […]
For protein purification, human SerRS and its mutant genes were subeloned into pET-20b(+) plasmid (Novagen, Darmstadt, Germany) and overexpressed in E. coli. […] The purities of the recombinant proteins were assessed by Coomassie blue staining following 4-12% Mini Gel (ThermoFisher Scientific) electrophoresis. Protein concentrations were determined using Bradford protein assay (BioRad, Hercules, Calif., USA). […]

For `O=c1cc(-c2cccc3c2Sc2ccccc2S3)oc(N2CCOCC2)c1` [KU-55933, reference compound], the “SerRS phosphorylation under hypoxia” value (SerRS phosphorylation) was “blocked” and the “VEGFA induction under hypoxia” value (VEGFA [1]) was “less but still statistically significant”.

`CS(=O)(=O)c1ccc(-c2cnc(N)c(C(=O)Nc3ccccc3)n2)cc1` [VE-821, reference compound] was tested, and the “SerRS phosphorylation under hypoxia” value (SerRS phosphorylation) was “blocked” and the “VEGFA induction under hypoxia” value (VEGFA [1]) was “dramatically inhibited VEGFA induction”.

In the case of “SerRS-MO: antisense morpholino targeting zebrafish SerRS, SEQ ID NO: 34 (antisense AGGAGAATGTGAACAAACCTGACAC; all phosphorodiamidate morpholino (PMO)) [reference compound]”, the “zebrafish embryos with abnormal hyper-ISV branching phenotype” value (zebrafish embryos) is reported as 69.7% and the “increase in the mRNA level of Vegfa” value (Vegfa [2]) is reported as 4 fold.

For “SerRS^S101A: human SerRS mutant, serine 101 substituted with alanine, SEQ ID NO: 2”, the “level of phosphorylation in vitro” value (ATM/ATR kinases) was “decreased level of phosphorylation”.

In the case of “SerRS^S241A: human SerRS mutant, serine 241 substituted with alanine, SEQ ID NO: 3”, the “level of phosphorylation in vitro” value (ATM/ATR kinases) is reported as “almost had no phosphorylation”.
